Experimental data from patent US20250049735A1, “MEDICINE FOR STEATOHEPATITIS” (The University of Tokyo, priority 2021, published 2025).

Tests used:
Atp8b1 E-KO mice [1] = details: mother mice fed 1% choline supplemented diet; pups at 4 weeks of age
Method: (§1) All animal experiments were approved by and performed in accordance with the guidelines of the animal experiment committee of the University of Tokyo. To generate Atp8b1^flox/flox mice, ICR and C57BL/6J mice were purchased from Charles River Laboratories International, Inc. (Yokohama, Japan). Mice were kept under pathogen-free conditions at a room temperature of 23.5° C.±2.5° C. and a relative humidity of 52.5%+12.5% under a 14-hour light: 10-hour dark cycle. […] In order to supplement choline to pups, mother mice were fed with a 1.0% choline supplemented diet (D20011404, Research Diets) until weaning of their pups.
Male mice harboring the designed floxed Atp8b1 allele with flox mutation were bred with female C57BL/6 mice, and the heterozygous floxed (Atp8b1^flox/+) mice in the obtained offsprings were intercrossed to produce homozygous floxed (Atp8b1^flox/flox) mice. The Atp8b1^flox/flox mice were crossed with villin-Cre transgenic mice (Stock No: 021504; The Jackson Laboratory, Bar Harbor, ME), and Atp8b1^flox/+; villin-Cre mice in the obtained offsprings were mated with Atp8b1^flox/flox mice to obtain intestinal epithelial cell (IEC)-specific Atp8b1 knockout (Atp8b1 IEC-KO; Atp8b1^flox/flox; villin-Cre) mice (Atp8b1 E-KO). Male Atp8b1 E-KO were mated with female Atp8b1^flox/flox mice, and the resulting Atp8b1 E-KO mice and littermate Atp8b1^flox/flox mice were used for animal experiments.
(§2) Male 3 to 4-week-old intestinal epithelial cell-specific Atp8b1 knockout (Atp8b1 E-KO) mice and control mice (littermate Flox/Flox mice) underwent laparotomy under isoflurane anesthesia. […] The blood was centrifuged at 1,700×g for 15 minutes, and plasma was separated. Thereafter, the plasma was flash-frozen in liquid nitrogen and was stored at −80° C. The liver was excised and was then flash-frozen in liquid nitrogen, and thereafter, the thus frozen liver was stored at −80° C., or was used for histological and electron microscopic analyses. The small intestine was excised, was then rinsed with cold PBS containing 0.5m M taurocholic acid, and was then used for histological and electron microscopic analyses, or for preparation of epithelial cells. To isolate epithelial cells from small intestine, TTDR kit (Becton Dickinson, Becton Drive Franklin Lakes, NJ) was used. According to the manufacturer's instructions included with the kit, the small intestine was opened longitudinally, was sliced into small fragments with a size of roughly 2 mm. The fragments were incubated with 1×TTDR diluted with DMEM (11995-065, gibco) at 37° C. for 30 minutes, and the resulting fragments were then mixed with 2 mM EDTA/PBS containing 1% BSA. The thus obtained mixture was filtrated through a 70 μm cell strainer (VWR21008-952; Corning Inc, Corning, NY), and was then centrifugated at 250×g at 4° C. for 10 minutes. The obtained cell pellets were incubated with 1×Pharm Lyse (Becton Dickinson, Becton Drive Franklin Lakes, NJ) at room temperature for 15 minutes for the lysis of red blood cells, and the resultant was then mixed with 2 mM EDTA/PBS containing 1% BSA. The thus obtained mixture was centrifuged at 250×g at 4° C. for 10 minutes. The prepared epithelial cells were flash frozen in liquid nitrogen, and were then stored at −80° C.
ALT and AST were determined by automatic measurement with Dri-chem (FUJIFILM, Tokyo, Japan).
The liver was cut into small pieces, was then fixed with 10% neutral buffered formalin, and was then embedded in paraffin. […]

Atp8b1 E-KO mice [2] = tested on: Atp8b1 E-KO mice
Method: as §1, §2
Metabolites were extracted from plasma, liver, and intestinal epithelial cells with methanol. After centrifugation at 20,000×g at 4° C. for 5 minutes, the supernatant was mixed with 400 mM ammonium sulfate at a ratio of 19:1. The mixture was centrifuged at 20,000×g at 4° C. for 5 minutes. The supernatant was applied to the LC/MS/MS system, which consisted of a UHPLC Nexera liquid chromatography system (Shimadzu co., Kyoto, Japan) and a 5500QTRAP mass spectrometer (AB Sciex pte. ltd., Toronto, Canada). The analytes were passed through a ZIC-CHILIC column (2.1×100 mm, 3 μm, Merck Millipore, Darmstadt, Germany) at a temperature of 30° C. with a gradient elution of the mobile phases, 10 mM ammonium formate aqueous solution and acetonitrile at a flow rate at 0.4 mL/min. The eluent was ionized using electrospray ionization and was scanned with an MRM mode (see Yuan et al., Nat. Protoc. 2012, 7 (5), 872-881. https://doi.org/10.1038/nprot.2012.024). Each MRM peak was assigned to a target molecule in comparison with its authentic standard.
The concentrations of choline, betaine, dimethylglycine (N,N-dimethylglycine) and glycerophosphorylcholine (sn-glycero-3-phosphocholine) in plasma were determined by liquid chromatography/tandem mass spectrometry (LC/MS/MS) assay. The sample was mixed with 98-fold volume of ethanol and 1-fold volume of the internal standard (IS) solution (10 μmol/L choline in water, 10 μmol/L glycerophosphorylcholine in water, and 1 μmol/L betaine in water).

[3] = liver of pups, mothers fed 1% choline supplemented diet vs normal diet (0.1% choline)
[4] = liver of pups, mothers fed 1% choline supplemented diet, compared with control mice
[5] = plasma and liver of Atp8b1 E-KO pups, mothers fed 1% choline supplemented diet, summary statement
[6] = plasma of pups, mothers fed 1% choline supplemented diet vs normal diet (0.1% choline)
[7] = plasma of pups, mothers fed 1% choline supplemented diet, compared with control mice
[8] = small intestinal epithelial cells of pups, mothers fed 1% choline supplemented diet vs normal diet (0.1% choline)

C[N+](C)(C)CCO [choline]
resolved: increase in liver weight observed in Atp8b1 E-KO pups (Atp8b1 E-KO mice [1])
not changed: concentration of choline in liver (Atp8b1 E-KO mice [2]; [3]) | concentration of glycerophosphorylcholine (GPC) in liver (Atp8b1 E-KO mice [2]; [3]) | concentration of phosphorylcholine in liver (Atp8b1 E-KO mice [2]; [3]) | concentration of choline in plasma (Atp8b1 E-KO mice [2]; [6]) | concentration of glycerophosphorylcholine (GPC) in plasma (Atp8b1 E-KO mice [2]; [6]) | concentration of phosphorylcholine in plasma (Atp8b1 E-KO mice [2]; [6]) | concentration of betaine in small intestinal epithelial cells (Atp8b1 E-KO mice [2]; small intestinal epithelial cells of pups, mothers fed 1% choline supplemented diet) | concentration of choline in small intestinal epithelial cells (Atp8b1 E-KO mice [2]; [8]) | concentration of glycerophosphorylcholine (GPC) in small intestinal epithelial cells (Atp8b1 E-KO mice [2]; [8]) | concentration of phosphorylcholine in small intestinal epithelial cells (Atp8b1 E-KO mice [2]; [8])
recovered: concentration of betaine in liver (Atp8b1 E-KO mice [2]; [4]) | concentration of dimethylglycine in liver (Atp8b1 E-KO mice [2]; [4]) | concentration of phosphatidylcholine (PC) in liver (Atp8b1 E-KO mice [2]; [4]) | concentration of betaine in plasma (Atp8b1 E-KO mice [2]; [7]) | concentration of dimethylglycine in plasma (Atp8b1 E-KO mice [2]; [7])
no change: amount of choline in the pups (Atp8b1 E-KO mice [2]; plasma and liver of Atp8b1 E-KO pups, mothers fed 1% choline supplemented diet vs normal diet, summary statement)
increased: amount of betaine in the pups (Atp8b1 E-KO mice [2]; [5]) | amount of dimethylglycine in the pups (Atp8b1 E-KO mice [2]; [5]) | amount of phosphatidylcholine (PC) in the pups (Atp8b1 E-KO mice [2]; [5])
reduced: amount of neutrophils (MPO positive cells) in the liver (Atp8b1 E-KO mice [1]) | amount of tissue macrophages (F4/80 positive cells) in the liver (Atp8b1 E-KO mice [1])
No changes were observed: body weight (Atp8b1 E-KO mice [1]) | small intestine length (Atp8b1 E-KO mice [1])
